We go through two molecules from patent publication US10590129B2 (Incozen Therapeutics Pvt. Ltd., priority 2010, dated 2020).

For one data set, the target named is RON (Homo sapiens, UniProt Q04912). The settings on record: cited from earlier work.
Data set [1] has as its target T1, c-Met (Homo sapiens, UniProt P08581). As to conditions: cited from earlier work.
In data set [2] the test system is MKN-45 cells. Briefly: Inhibition of MKN-45 proliferation (MTT). It is filed as cell-based, human. In short, it runs like this: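 Viability measured by MTT dye reduction on day 5 after compound addition on day 2 to MKN-45 gastric adenocarcinoma cells (high Met expression) seeded on day 1 in complete medium.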
For data set [3], the system named is MKN-45 cells. Briefly: Induction of apoptosis in MKN-45 cells (caspase-3 activity). It is filed as cell-based, human. As to conditions: @ 3 μM, 24 h, caspase-3, percent of maximum response. On the procedure:
6. Induction of Apoptosis in MKN-45 Cells:
Induction of Caspase 3 was measured fluorimetrically. Cells were incubated with desired concentrations of the compound for 24 h. After incubation, cells were harvested and counted. An equal number of viable cells per well (0.3×10^6 cells) were used for determination of caspase-3 activity. Increase in apoptosis manifested by an elevation in caspase-3 levels was determined using a Caspase-3 kit from Millipore. Data are expressed as a percent of the maximum response (100%).

The target of data set [4] is T2, Met kinase (Homo sapiens, UniProt P08581). Briefly: MET kinase assay (colorimetric determination of c-Met kinase activity, HTScan Met Kinase Assay Kit). It counts as biochemical. Details: purchased Cell Signalling Technology, Beverly, Mass. The source says:
1. MET Kinase Assay Protocol:
Colorimetric Determination of c-Met Kinase Activity
The receptor tyrosine kinase c-Met is a heterodimeric transmembrane glycoprotein involved in several cellular processes that aid in tumor progression. Phosphorylation of the tyrosine residues in the c-Met kinase domain is critical for its activity and the resulting down-stream effects. The colorimetric assay allows detection of the phosphorylated form of a biotinylated peptide upon activation of human recombinant Met kinase.
MET Kinase Assay Protocol:
c-Met Kinase activity shall be determined using an HTScan® Met Kinase Assay Kit (Cell Signalling Technology, Beverly, Mass.) with modifications. All incubations are carried out at room temperature. Briefly, 12.5 μl of a 4× reaction cocktail (DTT/Kinase buffer containing appropriate quantity of human Met kinase) is added to each well of a 96-well plate containing 12.5 μl pre-diluted compound of interest and incubated for 5 minutes. After the initial incubation, 25 μl/well of 2×ATP/biotinylated peptide is added and incubated for an additional 30 minutes. The reaction is terminated by the addition of 50 μl/well stop buffer (50 mM EDTA, pH 8.0). The reaction mixture (25 μl/well) is then transferred to a streptavidin coated plate (Perkin Elmer, Cat#4009-0010) containing 75 μl dH2O and incubated for 60 minutes. The plate is washed with 200 μl/well wash buffer (1×PBS, 0.05% Tween-20). After washing, 100 μl/well phospho-tyrosine mAb (1:1000 in wash buffer containing 1% BSA) is added and incubated for 60 minutes. After another round of washes, 100 μl/well europium labelled anti-mouse IgG (1:500 in wash buffer containing 1% BSA) is added and incubated for an additional 30 minutes. Following additional washes, 100 μl/well Delfia® enhancement solution (Perkin Elmer, Cat#1244-105) is added and incubated for 45 minutes. Florescence is measured on a microplate reader (BMG Labtech., Germany) at 340 nm (excitation) and 615 nm (emission) for calculating % inhibition. Data generated can be analyzed further using Graphpad Prism (Graphpad software, San Diego Calif.) for determination of IC50.

The test system of data set [5] is Akt. Briefly: Inhibition of Akt phosphorylation in MKN-45 cells (western blot, pAkt S473). It is filed as cell-based. As to conditions: Homo sapiens. The protocol: (§1) Inhibition of Akt Phosphorylation in MKN-45 or NCI-11441 Cells:
(§2) Akt is a serine-threonine kinase and a downstream marker regulated by c-Met kinase via the PI3K pathway. Once phosphorylated, Akt regulates several end processes including cell survival and growth. Cells were treated with 0−1000 nM of test compounds, lysed, and the proteins separated on a 10% SDS-PAGE. Following separation, proteins were transferred onto a nitrocellulose membrane and detected by chemiluminescence after incubation with pAkt S473 mAb (primary) and rabbit anti-mouse Ab (secondary). Intensity of the bands was determined using ImageJ 1.42q (NIH, USA) and normalized to Actin (loading control).

Data set [6] deals with T1, c-Met. Briefly: Inhibition of c-Met kinase phosphorylation in MKN-45 cells (cell based ELISA). The arrangement: endogenous in cells; host or cells: MKN-45. The settings on record: 1 h. On the procedure:
Inhibition of c-Met Kinase Phosphorylation in MKN-45 Cells:
MKN45 cells are a prototype of “c-Met addicted” cells having constitutively activated c-Met kinase similar to that observed in sub-sects of gastric or hepatocellular cancer patients with dysregulated c-Met kinase activity. Inhibition of Met phosphorylation was determined using a cell based ELISA assay according to the following schedule:
Day 1: MKN-45 cells were plated in 96-well plates in complete growth medium.
Day 2: Inhibitors at the desired concentration were added to the plates and incubated for 1 h and lysed subsequently.
Lysates were transferred to NUNC Maxisorp plates coated with anti-cMet receptor antibody. Phopho-tyrosine mAb and HRP-lined anti-mouse IgG were used as primary and secondary antibodies respectively. Optical density was measured on a microplate reader (BMG Labtech., Germany) at […]. Inhibition of c-Met phosphorylation in this cell line indicates a therapeutic potential for test compounds in patients diagnosed with cancers caused by aberrant c-Met kinase signalling.
(In general: ELISA stands for enzyme-linked immunosorbent assay.)

The subject of data set [7] is Akt. Briefly: Inhibition of Akt phosphorylation in NCI-H441 cells (western blot, pAkt S473). It counts as cell-based. The settings on record: Homo sapiens. The protocol: as §1, §2
In general terms: Immunoblotting shows a protein as a band on a membrane.

Data set [8] concerns the target T1, c-Met. Briefly: Inhibition of c-Met kinase phosphorylation in NCI-H441 cells (cell based ELISA). Details: endogenous in cells; host or cells: NCI-H441. The settings on record: 1 h. On the procedure:
Inhibition of c-Met Kinase Phosphorylation in NCI—H441 Cells:
Inhibition of Met phosphorylation was determined using a cell based ELISA assay according to the following schedule:
Day 1: NCI—H441 cells were plated in 96-well plates in complete growth medium.
Day 2: Inhibitors at the desired concentration were added to the plates, incubated for 1 h and lysed subsequently. Lysates were transferred to NUNC Maxisorp plates coated with anti-cMet receptor antibody. Phopho-tyrosine mAb and HRP-lined anti-mouse IgG were used as primary and secondary antibodies respectively. Optical density was measured on a microplate reader (BMG Labtech., Germany) at […].

Data set [9] deals with T2, Met kinase. Briefly: Inhibition of HGF-induced Met phosphorylation in MDA-MB-231 cells. The arrangement: endogenous in cells; host or cells: MDA-MB-231. It counts as cell-based. The settings on record: HGF 50 ng/ml, read-out: HGF stimulated Met phosphorylation (IC50).

Where two headings read alike, the source gives them in different places.

T2 sequence (P08581 25-1390): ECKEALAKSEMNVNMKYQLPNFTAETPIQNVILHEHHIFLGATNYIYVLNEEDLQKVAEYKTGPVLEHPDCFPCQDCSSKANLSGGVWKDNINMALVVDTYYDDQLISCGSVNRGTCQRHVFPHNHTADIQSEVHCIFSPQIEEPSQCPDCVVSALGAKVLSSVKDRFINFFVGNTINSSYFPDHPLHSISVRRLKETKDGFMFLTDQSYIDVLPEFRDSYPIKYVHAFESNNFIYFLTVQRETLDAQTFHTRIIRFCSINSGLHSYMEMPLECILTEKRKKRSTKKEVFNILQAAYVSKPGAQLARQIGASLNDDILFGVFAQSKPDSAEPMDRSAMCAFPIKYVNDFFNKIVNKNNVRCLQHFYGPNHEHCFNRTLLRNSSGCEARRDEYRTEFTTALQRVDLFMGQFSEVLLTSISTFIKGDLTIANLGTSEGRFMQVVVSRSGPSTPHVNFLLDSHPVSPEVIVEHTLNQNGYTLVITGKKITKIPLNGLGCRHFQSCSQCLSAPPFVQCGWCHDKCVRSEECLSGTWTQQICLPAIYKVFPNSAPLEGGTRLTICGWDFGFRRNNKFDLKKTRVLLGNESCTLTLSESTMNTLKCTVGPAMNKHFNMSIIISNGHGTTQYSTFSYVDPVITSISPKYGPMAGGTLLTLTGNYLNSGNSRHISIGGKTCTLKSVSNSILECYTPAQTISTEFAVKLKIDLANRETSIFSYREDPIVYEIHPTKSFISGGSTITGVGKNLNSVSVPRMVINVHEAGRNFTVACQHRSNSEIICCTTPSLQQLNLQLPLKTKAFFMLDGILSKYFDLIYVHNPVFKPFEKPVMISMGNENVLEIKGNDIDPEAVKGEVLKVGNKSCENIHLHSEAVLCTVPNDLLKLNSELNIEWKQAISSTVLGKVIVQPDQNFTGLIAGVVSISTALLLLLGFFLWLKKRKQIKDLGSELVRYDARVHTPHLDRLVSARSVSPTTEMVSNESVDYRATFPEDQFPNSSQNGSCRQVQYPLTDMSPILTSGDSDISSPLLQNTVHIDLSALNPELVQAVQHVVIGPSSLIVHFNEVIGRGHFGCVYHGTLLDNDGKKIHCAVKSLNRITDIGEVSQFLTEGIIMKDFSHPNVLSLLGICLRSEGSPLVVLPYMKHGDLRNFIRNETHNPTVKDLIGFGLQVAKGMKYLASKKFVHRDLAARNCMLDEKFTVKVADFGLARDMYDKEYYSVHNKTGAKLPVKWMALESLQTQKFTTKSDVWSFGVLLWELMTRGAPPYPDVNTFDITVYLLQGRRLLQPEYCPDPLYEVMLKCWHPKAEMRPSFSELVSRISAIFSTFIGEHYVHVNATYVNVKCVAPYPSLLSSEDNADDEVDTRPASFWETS
T1 sequence (P08581 25-1390): as above
Chain of RON (Q04912 25-1400, species assumed): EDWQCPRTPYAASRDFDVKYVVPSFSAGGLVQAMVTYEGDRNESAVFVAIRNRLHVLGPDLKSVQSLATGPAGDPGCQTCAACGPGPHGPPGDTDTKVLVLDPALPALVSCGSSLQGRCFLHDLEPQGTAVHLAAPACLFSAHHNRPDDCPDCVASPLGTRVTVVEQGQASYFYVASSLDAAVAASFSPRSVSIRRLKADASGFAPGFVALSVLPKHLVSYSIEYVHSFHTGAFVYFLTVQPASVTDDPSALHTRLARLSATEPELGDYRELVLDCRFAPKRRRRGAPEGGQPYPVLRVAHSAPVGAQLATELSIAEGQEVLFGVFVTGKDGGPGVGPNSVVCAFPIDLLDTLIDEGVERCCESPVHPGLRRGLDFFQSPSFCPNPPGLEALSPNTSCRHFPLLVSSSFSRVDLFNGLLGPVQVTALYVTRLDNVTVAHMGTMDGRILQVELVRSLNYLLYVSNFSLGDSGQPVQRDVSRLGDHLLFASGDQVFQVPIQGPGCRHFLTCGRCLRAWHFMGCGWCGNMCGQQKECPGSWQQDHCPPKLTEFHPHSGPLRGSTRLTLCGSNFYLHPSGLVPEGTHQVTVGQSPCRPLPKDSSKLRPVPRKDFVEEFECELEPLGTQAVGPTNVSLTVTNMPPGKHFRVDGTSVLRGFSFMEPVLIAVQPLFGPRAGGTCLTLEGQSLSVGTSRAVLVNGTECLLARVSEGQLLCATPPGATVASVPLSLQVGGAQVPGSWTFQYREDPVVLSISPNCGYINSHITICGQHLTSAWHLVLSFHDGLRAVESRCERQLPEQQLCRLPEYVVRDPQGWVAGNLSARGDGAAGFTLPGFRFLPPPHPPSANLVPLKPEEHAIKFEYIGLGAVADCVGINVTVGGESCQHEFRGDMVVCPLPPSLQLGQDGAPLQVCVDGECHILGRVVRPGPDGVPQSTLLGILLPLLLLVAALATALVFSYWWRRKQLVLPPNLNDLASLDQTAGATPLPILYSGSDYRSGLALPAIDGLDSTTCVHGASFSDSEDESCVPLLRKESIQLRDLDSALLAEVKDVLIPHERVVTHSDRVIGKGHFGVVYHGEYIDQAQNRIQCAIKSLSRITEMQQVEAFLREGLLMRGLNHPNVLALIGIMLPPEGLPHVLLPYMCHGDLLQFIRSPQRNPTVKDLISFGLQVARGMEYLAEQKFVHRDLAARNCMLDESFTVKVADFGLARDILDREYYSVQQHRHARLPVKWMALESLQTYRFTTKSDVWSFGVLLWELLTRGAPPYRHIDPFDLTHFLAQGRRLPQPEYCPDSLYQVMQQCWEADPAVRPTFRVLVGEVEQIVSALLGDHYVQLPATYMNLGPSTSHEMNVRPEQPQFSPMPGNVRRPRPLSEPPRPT

The term IC50 denotes the concentration needed to halve the response being measured. Take `COc1ccc2c(Oc3ccc(NC(=O)c4c(C)n(CC(C)(C)O)n(-c5ccccc5)c4=O)nc3)ccnc2c1` [AMG-458]: the IC50 was 9 nM at RON and 4 nM on c-Met [1].

As a reminder, the GI50 is the concentration at which growth is held to half of that of the control. What is called melting point is the temperature, or range, at which the solid turns liquid. As usually defined, the inhibition is the relative decrease from the control value, in per cent. In the case of `CCNC(=O)c1ccc(-c2ccc3nnn(Cc4ccc5ncccc5c4)c3n2)cc1Cl` [Ex 119, 2-Chloro-N-ethyl-4-(3-(quinolin-6-ylmethyl)-3H-[1,2,3]triazolo[4,5-b]pyridin-5-yl)benzamide], the melting point is 187 to 190 °C. In addition, the GI50 with MKN-45 cells [2] (Homo sapiens, MKN-45, MKN-45 proliferation) is no more than 50 nM. The “Inhibition (% Inhibition of MKN-45 proliferation)” value in the data set with MKN-45 cells [2] (MKN-45 proliferation, 0.1 μM) is “A (A = ≥75 to 100%)”. In the data set on MKN-45 cells [3], the “Apoptosis in MKN-45 cells (percentage induction)” value is “A (A = >50 to 100%)”. The inhibition at 1 µM on Met kinase [4] (at 1 μM) was in the range of 75 to 100%. The molecule further gave a half-inhibitory concentration (IC50) against Met kinase [4] (c-Met kinase) of no more than 50 nM. For the same molecule, in the data set with Akt [5], the IC50 is no more than 25 nM. The IC50 against c-Met [6] is no more than 50 nM. Moreover, the IC50 with Akt [7] is no more than 25 nM. In addition, the IC50 against c-Met [8] is no more than 10 nM. Moreover, on Met kinase [9], the IC50 is no more than 10 nM.
